From US20030055263A1, “Carboxylic acid derivatives, medicaments comprising these compounds, their use and processes for their production” (Boehringer Ingelheim Pharma KG, priority 2001, published 2003)

molecular target: T1, telomerase in nuclear extracts from HeLa cells (Homo sapiens, UniProt O14746); assay: Telomerase test in nuclear extracts from HeLa cells (method of Morin); format: biochemical; conditions: HeLa nuclear extract, 120 minutes at 30° C., inhibitor 1 nM to 100 μM, 32P-dGTP incorporation quantified by Phospho-Imager
T1 construct: The activity of telomerase in nuclear extracts from HeLa cells; endogenous in cells; host or cells: HeLa-S3 (ATCC CCL-2.2) nuclear extract
T1 sequence (O14746 whole entry): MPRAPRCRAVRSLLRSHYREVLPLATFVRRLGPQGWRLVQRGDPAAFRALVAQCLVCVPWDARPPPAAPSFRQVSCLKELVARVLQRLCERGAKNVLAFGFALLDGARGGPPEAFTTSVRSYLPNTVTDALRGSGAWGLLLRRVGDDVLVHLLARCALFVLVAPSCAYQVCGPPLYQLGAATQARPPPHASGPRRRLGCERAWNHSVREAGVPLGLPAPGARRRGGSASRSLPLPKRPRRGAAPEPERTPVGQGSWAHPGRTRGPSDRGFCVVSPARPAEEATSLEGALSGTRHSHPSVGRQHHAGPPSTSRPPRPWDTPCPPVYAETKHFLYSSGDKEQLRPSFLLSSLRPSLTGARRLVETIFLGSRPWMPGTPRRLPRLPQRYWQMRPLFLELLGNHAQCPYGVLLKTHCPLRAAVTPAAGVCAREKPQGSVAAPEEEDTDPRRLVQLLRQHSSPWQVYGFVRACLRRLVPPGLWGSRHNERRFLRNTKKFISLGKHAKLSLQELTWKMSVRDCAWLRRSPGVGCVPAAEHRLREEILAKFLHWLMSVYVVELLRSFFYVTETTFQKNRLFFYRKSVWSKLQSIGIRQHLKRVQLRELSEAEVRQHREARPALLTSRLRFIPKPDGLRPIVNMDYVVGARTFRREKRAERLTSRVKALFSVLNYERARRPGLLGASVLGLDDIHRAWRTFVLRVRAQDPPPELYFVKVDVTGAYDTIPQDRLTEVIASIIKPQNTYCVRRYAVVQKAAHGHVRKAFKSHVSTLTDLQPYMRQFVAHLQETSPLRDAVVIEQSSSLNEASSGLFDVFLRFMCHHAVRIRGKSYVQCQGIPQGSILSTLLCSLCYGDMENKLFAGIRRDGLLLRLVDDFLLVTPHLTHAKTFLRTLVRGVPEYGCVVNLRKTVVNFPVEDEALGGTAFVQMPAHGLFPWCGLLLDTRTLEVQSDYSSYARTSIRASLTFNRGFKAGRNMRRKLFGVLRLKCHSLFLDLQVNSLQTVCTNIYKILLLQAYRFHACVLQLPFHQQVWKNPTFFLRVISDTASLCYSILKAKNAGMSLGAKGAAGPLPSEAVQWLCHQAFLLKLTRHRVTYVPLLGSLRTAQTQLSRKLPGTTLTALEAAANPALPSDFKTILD
T1 sequence (O60832 whole entry partner): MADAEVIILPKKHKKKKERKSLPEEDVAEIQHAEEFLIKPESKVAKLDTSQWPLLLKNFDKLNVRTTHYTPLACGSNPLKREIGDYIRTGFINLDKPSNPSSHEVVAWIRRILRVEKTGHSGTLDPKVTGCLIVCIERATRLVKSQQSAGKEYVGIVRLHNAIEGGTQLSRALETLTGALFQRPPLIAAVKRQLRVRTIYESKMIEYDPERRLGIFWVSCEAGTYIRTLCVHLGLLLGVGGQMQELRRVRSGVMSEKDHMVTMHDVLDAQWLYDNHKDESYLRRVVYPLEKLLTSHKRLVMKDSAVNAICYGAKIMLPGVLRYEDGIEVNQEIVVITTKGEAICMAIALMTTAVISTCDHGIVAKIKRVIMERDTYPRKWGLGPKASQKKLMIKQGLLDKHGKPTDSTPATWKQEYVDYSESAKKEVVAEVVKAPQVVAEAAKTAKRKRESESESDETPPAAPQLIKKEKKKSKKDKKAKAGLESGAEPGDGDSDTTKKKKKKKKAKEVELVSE
T1 sequence (Q9NX24 whole entry partner): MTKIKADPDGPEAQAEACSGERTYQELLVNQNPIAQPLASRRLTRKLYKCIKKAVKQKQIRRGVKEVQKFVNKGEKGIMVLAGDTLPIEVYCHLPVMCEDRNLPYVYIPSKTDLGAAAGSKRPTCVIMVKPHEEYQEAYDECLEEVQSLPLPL
T1 sequence (Q9NPE3 whole entry partner): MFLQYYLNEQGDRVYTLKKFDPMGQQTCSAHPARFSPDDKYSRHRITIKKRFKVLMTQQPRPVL
T1 sequence (Q9NY12 whole entry partner): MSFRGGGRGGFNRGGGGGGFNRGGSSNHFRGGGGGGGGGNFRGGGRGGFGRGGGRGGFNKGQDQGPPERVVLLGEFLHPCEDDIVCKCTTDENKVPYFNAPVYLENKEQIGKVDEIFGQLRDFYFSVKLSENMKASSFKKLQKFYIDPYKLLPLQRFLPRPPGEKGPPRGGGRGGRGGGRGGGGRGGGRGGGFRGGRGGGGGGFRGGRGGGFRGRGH
T1 sequence (Q9BUR4 whole entry partner): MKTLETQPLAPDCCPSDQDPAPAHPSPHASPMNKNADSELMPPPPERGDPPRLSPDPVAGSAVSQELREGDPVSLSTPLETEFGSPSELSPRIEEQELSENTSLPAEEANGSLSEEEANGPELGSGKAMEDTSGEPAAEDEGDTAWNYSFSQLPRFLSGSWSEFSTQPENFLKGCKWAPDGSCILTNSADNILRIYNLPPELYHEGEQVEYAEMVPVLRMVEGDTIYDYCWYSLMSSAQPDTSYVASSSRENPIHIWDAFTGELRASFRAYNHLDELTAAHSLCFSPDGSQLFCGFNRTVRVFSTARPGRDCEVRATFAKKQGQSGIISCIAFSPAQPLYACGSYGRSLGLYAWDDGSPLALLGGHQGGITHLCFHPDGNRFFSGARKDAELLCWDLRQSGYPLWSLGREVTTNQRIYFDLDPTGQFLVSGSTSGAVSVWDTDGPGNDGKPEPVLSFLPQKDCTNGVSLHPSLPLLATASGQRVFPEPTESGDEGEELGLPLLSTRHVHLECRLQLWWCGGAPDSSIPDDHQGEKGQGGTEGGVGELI
Method: 1. Preparation of nuclear extracts from HeLa cells: Nuclear extracts were prepared according to Dignam (Dignam et al. in Nucleic Acids Res. 11, 1475-1489 (1983)). All the steps were carried out at 4° C., all the equipment and solutions were pre-cooled to 4° C. At least 1×10^9 HeLa-S3 cells growing in suspension culture (ATCC catalogue number CCL-2.2) were harvested by centrifuging for 5 minutes at 1000×g and washed once with PBS buffer ([…]; 2.7 mM KCl; 8.1 mM Na2HPO4; 1.5 mM KH2PO4) . After the cell volume had been determined, the cells were suspended in 5 times the volume of hypotonic buffer (10 mM HEPES/KOH, pH 7.8; 10 mM KCl; 1.5 mM MgCl2) and then left for 10 minutes at 4° C. After centrifuging for 5 minutes at 1000×g the cell pellet was suspended in twice the volume of hypotonic buffer in the presence of 1 mM DTE and 1 mM PMSF and broken up with a Dounce homogeniser. The homogenised material was made isotonic with 0.1 volume of 10-fold saline buffer (300 mM HEPES/KOH, pH 7.8; 1.4 M KCl; 30 mM MgCl2). The cell nuclei were separated from the ingredients of the cytoplasm by centrifuging and then suspended in twice the volume of nuclear extraction buffer (20 mM HEPES/KOH, pH 7.9; 420 mM KCl; 1.5 mM MgCl2; 0.2 mM EDTA; 0.5 mM DTE; 25% glycerol). The nuclei were broken up using a Dounce homogeniser and incubated for 30 minutes at 4° C. with gentle stirring. Any insoluble ingredients were removed by centrifuging for 30 minutes at 10.000 rpm (SS-34 Rotor). Then the nuclear extract was dialysed for 4-5 hours against AM-100 buffer (20 mM tris/HCl, pH 7.9; 100 mM KCl; 0.1 mM EDTA; 0.5 mM DTE; 20% glycerol). The nuclear extracts obtained were frozen in liquid nitrogen and stored at −80° C.
2. Telomerase test: The activity of telomerase in nuclear extracts from HeLa cells was determined using the method described by Morin (Morin in Cell 59. 521-529 (1989)). […] If the inhibition constant of potential telomerase inhibitors was to be determined, these were also added to the telomerase reaction in a concentration range of from 1 nM to 100 μM. […]

Row | IC50 [µM] | Compound
1 | < 5 | O=C(O)c1ccccc1C(=O)Nc1nc(-c2ccc3ccccc3c2)cs1 [Example 3, 2-[4-(naphthalin-2-yl)-thiazol-2-ylaminocarbonyl]-benzoic acid]
2 | < 1 | O=C(O)c1ccccc1Nc1nccc(-c2ccc3ccccc3c2)n1 [Example 50, 2-[4-(naphthalin-2-yl)-pyrimidin-2-ylamino]-benzoic acid]
3 | < 1 | O=C(O)C1=C(C(=O)Nc2nc(-c3ccc4ccccc4c3)cs2)CCC1 [Example 35, 2-[4-(naphthalin-2-yl)-thiazol-2-ylaminocarbonyl]-cyclopent-1-ene-carboxylic acid]
